# Patent US20220117920A1, “N-Aryl Benzenesulfonamides as Protonophores for the Treatment of Cancers, Metabolic Diseases and Traumatic Brain Injury” (University of Kentucky Research Foundation, priority 2019, published 2022)
# Assays:
# [1] = system: Wnt signaling; assay: Wnt reporter assay, stable HEK293T cell line containing TOPFlash reporter, LiCl-activated; type: cell-based, human; details: concentration not given
# From the text: To identify novel Wnt regulators by high throughput screening, a stable HEK293T cell line containing the TOPFlash reporter was established. To identify Wnt inhibitors that targeted molecular events downstream of β-catenin, we treated these cells with lithium chloride to inhibit GSK3 and to stabilize β-catenin. […] We also validated the results by transient transfection of Super 8× TOPFlash or 8× FOPFlash into HEK293T cells. […] Since the results from the stable and transient transfection are compatible, we used stable cell lines for all of the other experiments.
# Reporter assay. Wnt reporter assay and cell staining assay have been described previously. We subcloned Super 8×TOPFlash (provided by Professor Randall Moon, University of Washington) into the pGL4.83 [hRlucP/Puro] Vector and transfected it into HEK293T cells. A stable HEK293T cell line containing the TOPFlash reporter was established using puromycin selection. To screen Wnt inhibitors that block the downstream signaling transduction pathway of β-catenin, we treated the reporter cells with 25 mM LiCl to stabilize β-catenin and activate Wnt signaling. The potential Wnt inhibitors identified from screening were validated by transfecting TOPFlash or FOPFlash plus control renilla reporters into HEK293T cells, and then treating the cells with DMSO or testing compounds in DMSO solution. The Wnt signaling was activated by LiCl or Wnt3A treatment.
# [2] = system: AMPK; assay: Western blot of AMPK (T172) and ACC (S79) phosphorylation in CRC cells; type: cell-based, human; details: concentration not given
# Procedure: Biochemistry. Western blotting: Cells were lysed in the appropriate volume of lysis buffer: 50 mM HEPES, 100 mM NaCl, 2 mM EDTA, 1% (v/v) glycerol, 50 mM NaF, 1 mM Na3VO4, 1% (v/v) Triton X-100, with protease inhibitors. The following antibodies were used: AMPK (Cell Signaling, 2532, Cell Signaling Technologies, Danver, Mass., USA), pAMPK (Cell Signaling, 2535), ACC (Cell Signaling, 3676), pACC (Cell Signaling, 11818), Actin (Sigma, A1978). Antibodies for Axin 2, c-Myc and Cyclin D1 have been described previously. ATP analysis: Cells growing in 12-well plates were treated with DMSO or inhibitors in DMSO solution and lysed by adding 1 mL boiling doubly distilled water. Supernatants were analyzed by luminescence using ATP Determination Kit (Invitrogen, A22066; Thermo Fisher Scientific, Waltham, Mass., USA).
# [3] = system: purified mitochondria from mouse liver; assay: Uncoupling assay (OCR) using purified mitochondria from mouse livers; type: biochemical; details: 5 μM/1 μM
# Procedure: All the steps were carried out at 4° C. or on ice. After mice were euthanized with CO2 followed by rapid decapitation, whole liver was quickly dissected out on a cold block and homogenized using a Teflon-glass dounce homogenizer containing isolation buffer (215 mM mannitol, 75 mM sucrose, 0.1% BSA, 20 mM HEPES, 1 mM EGTA, adjusted to pH 7.2 with KOH). The homogenate was transferred to a 2 mL-microcentrifuge tube and spun at 1,300×g for 3 min. The supernatant was transferred to a fresh 2 mL-microcentrifuge tube and spun at 13,000×g for 10 min. The supernatant was discarded, and the crude mitochondrial pellet was resuspended in a 1.5 mL-microcentrifuge tubes and pelleted again at 10,000×g for 10 min. The supernatant was discarded, and the mitochondrial pellets were resuspended in isolation buffer to obtain an approximate concentration ≥10 mg/mL of mitochondria. The absolute protein concentration was determined using a bicinchoninic acid (BCA) protein assay kit (Pierce, Cat #23,227) by recording absorbance at 560 nm on a Biotek Synergy HT plate reader (Winooski, Vt., USA).
# Mitochondrial Bioenergetics Measurements. Mitochondrial bioenergetic measurements were carried out using a Seahorse XFe96 Extracellular Flux Analyzer (Agilent Technologies, Santa Clara, Calif., USA) to measure oxygen consumption rate (OCR) during various states of respiration. The OCR were measured in the presence of different substrates, inhibitors and uncouplers of the electron transport chain using previous methods with slight modifications. The stocks used for the assays were 500 mM pyruvate, 250 mM malate, and 30 mM adenosine diphosphate (ADP), and 1 M succinate (pH for all was adjusted to 7.2). […] Stock solutions of FH535, Y3, FH535-M, and Y3-M were prepared at 5 mM in 100% DMSO. As per the instructions from XFe96 Extracellular Flux kit, the sensor cartridge was hydrated with water and kept at 37° C. overnight before the experiment. One hour before the assay was conducted, water was removed from assay plates and XF calibrant was added before re-incubation. The injection ports A to D of the sensor cartridge were loaded with 25 μL of different combinations of the above substrates/inhibitors/uncouplers as follows. Before loading, the stocks were diluted appropriately in the respiration buffer (RB) (125 mM KCl, 0.1% BSA, 20 mM HEPES, 2 mM MgCl2, and 2.5 mM KH2PO4; pH 7.2) to get the final concentrations in the respiration chamber of 5 μM pyruvate, 2.5 μM malate, 10 μM of succinate and 1 μM ADP (via Port A), 1 μM oligomycin A (via Port B), 4 μM FCCP or 5 μM/1 μM FH535 or 5 μM/1 μM Y3 or 5 μM/1 μM FH535-M or 5 μM/1 μM Y3-M (via Port C) and 0.1 μM antimycin A (via Port D) starting with the initial volume of 175 μL RB in the chamber and diluting it to 9×, 10×, 11× and 12× with every injection through ports A to D, respectively. Once loaded, the sensor cartridge was placed into the Seahorse XFe96 Flux Analyzer for automated calibration. Seahorse Standard XFe96 assay plates were used for loading mitochondria. Initially total mitochondria were diluted to 6 μg/30 μL in RB and 30 μL was loaded in each well resulting in 6 μg mitochondria/well. The assay plates were centrifuged at 3,000 rpm for 4 min at 4° C. to adhere liver mitochondria at the bottom of the wells. After centrifugation, 145 μL RB (pre-incubated to 37° C.) was added without disturbing the mitochondrial layer to obtain a final volume of 175 μL per well. […]
# [4] = system: Huh7 cells; assay: Western blot of autophagy markers LC3II and p62 in Huh7 cells; type: cell-based, human
# From the text: (§1) Primary antibodies are described in Table 1.
# [5] = system: Huh7 cells; assay: Cyto-ID autophagy detection assay in Huh7 cells; type: cell-based, human; details: Huh7, 40 h, ±50 μM CQ
# Procedure: Autophagy responses were monitored with the Cyto-ID autophagy detection reagent 2.0 (Enzo Life Sciences, USA) according to the manufacturer's instructions. Huh7 and PLC/PRF/5 cells were seeded in 12-well plates and treated the following day with drugs or DMSO vehicle control at the indicated concentrations. CQ was added to the corresponding wells to a final concentration of 50 μM 8 h prior harvesting. After 40 h of drug treatment, cells were collected and assessed for viability with Zombie Violet dye solution (BioLegend, USA) followed by Cyto-ID autophagy detection reagent staining. Flow cytometry analyses were performed in a BD LSRII at the Flow Cytometry and Cell Sorting Shared Resource Facility of the University of Kentucky Markey Cancer Center and data were analyzed with the FlowJo Software version 7.6.5 (Tree Star, USA). The autophagic flux was quantified by subtracting the Cyto-ID MFI value of the sample without CQ from the Cyto-ID MFI value of the sample with CQ for each condition according to the formula: […]
# [6] = system: Huh7 cells; assay: [3H]-thymidine incorporation assay, Huh7; type: cell-based, human; details: Huh7, 72 h
# Procedure: (§2) Huh7, PLC/PRF/5 and Hep3B cells were plated in 96-well plates at 3000-4000 cells/well, treated with the concentrations indicated of FH535 or FH535-N, as single agents or in combination with sorafenib, and cultured for 72 h. ^3H-thymidine incorporation assay was performed as described previously.
# [7] = system: PLC/PRF/5 cells; assay: [3H]-thymidine incorporation assay, PLC/PRF/5; type: cell-based, human; details: PLC/PRF/5, 72 h
# Procedure: as §2
# [8] = system: Hep3B cells; assay: [3H]-thymidine incorporation assay, Hep3B; type: cell-based, human; details: 72 h
# Procedure: as §2
# [9] = system: Wnt/β-catenin pathway; assay: TOP-Flash TCF4-dependent dual luciferase reporter assay in Huh7 cells; type: cell-based, human; details: Huh7, 10 mM LiCl
# Procedure: Cells were plated at 1×10^5 cells/well in 24-well plates and transiently transfected with 490 ng of luciferase-reporter plasmid and 10 ng of phRL-TK per well using the Turbofect transfection reagent (Thermo Scientific, USA). After 5-6 h post-transfection, cells were treated with drug(s) or DMSO vehicle control for 36 h in the presence or absence of LiCl (10 mM). Luciferase assays were performed using the Dual Luciferase Assay System (Promega, USA) according to manufacturer's instructions.
# [10] = system: Wnt/β-catenin target genes; assay: Expression of downstream β-catenin targets in Huh7 cells (western blot, RT-qPCR); type: cell-based, human; details: Huh7, 36 h
# Procedure: as §1
# Total RNA was extracted with miRNeasy mini kit (Qiagen, Germany), and the corresponding cDNA was produced using iScript cDNA synthesis kit (BioRad, USA) from 1 μg of total RNA. Real time quantitative PCR (RT-qPCR) was performed using SsoAdvanced Universal SYBR Green supermix (BioRad, USA) with specific primers: p62 (SQSTM1: 5′-[…]-3′ (SEQ ID NO: 1) and 5′-[…]-3′ (SEQ ID NO: 2)); c-MYC (cMYC: 5′-[…]-3′ (SEQ ID NO: 3) and 5′-[…]-3′ (SEQ ID NO: 4)), Survivin (BIRC5, 5′-[…]-3′ (SEQ ID NO: 5) and 5′-[…]-3′ (SEQ ID NO: 6)), AXIN 2 (AXIN2: 5′-[…]-3′ (SEQ ID NO: 7) and 5′-[…]-3′ (SEQ ID NO: 8)), Cyclin D1 (5′-CCND1: […]-3′ (SEQ ID NO: 9) and 5′-[…]-3′ (SEQ ID NO: 10)), and b2-microglobulin (B2M: 5′-[…]-3′ (SEQ ID NO: 11) and 5′-[…]-3′ (SEQ ID NO: 12)). Transcript levels were normalized to β-actin or […] level as indicated using the ΔΔCt method.
# [11] = system: Huh7 cells; assay: Annexin V/PI apoptosis assay, Huh7; type: cell-based, human; details: Huh7, 48 h
# Procedure: (§3) Apoptosis assay was performed in Huh7 and PLC/PRF/5 cells treated 48 h with DMSO vehicle control or the indicated doses of FH535, FH535-N alone or in combination with sorafenib. Cells were harvested and stained with the APC Annexin V apoptosis detection kit with PI (BioLegend, USA) according to the manufacturing instructions followed by flow cytometry analysis. Flow cytometry data was acquired with an LSRII instrument (BD-Biosciences) and analyzed with FlowJo software (Tree Star).
# [12] = system: PLC/PRF/5 cells; assay: Annexin V/PI apoptosis assay, PLC/PRF/5; type: cell-based, human; details: PLC/PRF/5, 48 h
# Procedure: as §3
# [13] = system: Huh7 cells; assay: Seahorse mitochondrial stress test (OCR) in Huh7 cells; type: cell-based, human; details: Huh7, 24 h
# Procedure: Oxygen Consumption Rates (OCR) were measured on an XF-96 Extracellular Flux Analyzer (Seahorse Bioscience) using the protocol and conditions optimized for HCC cells as previously described by our group. Briefly, the experiments were performed by seeding 10,000 and 20,000 Huh7 cells per well in XFe 96 well-plates 36 h before the experiment. Cells were treated for 24 h with FH535, FH535-N or vehicle control. In OCR experiments the media was supplemented with 25 mM Glucose and 1 mM Pyruvate just before the assay. After minimal incubation time (˜20-30 min in non-CO2 37° C. incubator) mitochondrial stress test was initiated. […] All reagents used in the Seahorse experiments were purchased from Sigma-Aldrich. Analyses of data were performed with Wave 2.2 software (Seahorse Bioscience), Excel (Microsoft Office 2013) and Prism 7.0 (GraphPad Software).
smiles,measurement,setting,value
"O=[N+]([O-])c1ccc(NS(=O)(=O)c2cc(Cl)ccc2Cl)c2ccccc12 [Y3, 2,5-dichloro-N-(4-nitronaphthalen-1-yl)benzenesulfonamide]",inhibition of Wnt signaling,[1],inhibited Wnt signaling
same,AMPK activation,[2],strongly activated AMPK
same,uncoupling: OCR blocked by oligomycin,[3],increased OCR in dose-dependent manner
same,"accumulation of LC3II in the presence of CQ (autophagic flux, ΔLC3II)","[4]; Huh7, 50 μM CQ 8 h",reduced at higher doses
same,LC3II protein levels,"[4]; Huh7, 40 h",increased
same,p62 protein levels,"[4]; Huh7, 40 h",increased
same,autophagic flux (Cyto-ID),[5],reduction in the autophagic flux
same,cell proliferation (3H-thymidine incorporation),[6],inhibited cell proliferation
same,cell proliferation (3H-thymidine incorporation),[7],inhibited cell proliferation
same,cell proliferation (3H-thymidine incorporation),[8],inhibited cell proliferation
same,Wnt/β-catenin transcriptional activity (TOP-Flash),[9],reduced the Wnt/β-catenin transcriptional activity
same,expression of downstream Wnt/β-catenin target genes,[10],reduced
same,apoptosis (Annexin V/PI),[11],significant increased rate of apoptosis
same,apoptosis (Annexin V/PI),[12],significant increased rate of apoptosis
same,Proton Leak,[13],enhanced Proton Leak
